Marks after values point to notes of the source that are not given here. Square brackets hold non-standard residues; d marks the D form. Ends that are not written are not given here. Tyr(3,5-Br2) = N[C@@H](Cc1cc(Br)c(O)c(Br)c1)C(=O)O; Nle = CCCC[C@H](N)C(=O)O
Experiments:
[1] = system: hepatocarcinoma H22; experiment: survival of mice transplanted with H22 hepatocarcinoma; format: in vivo, BALB/c mice; settings: for survival of mice transplanted with H22 tumor cells: 80 μg/kg/day, vs saline control P<0.05
Procedure: Healthy BALB/c mice were randomized into groups of CMS-024.04, CMS-025.05, CMS-024.14, and CMS-024.16 (80 μg/kg/day), 5-Fu (20 mg/kg/day, once for every two days), saline (0.2 ml/day), and normal group (without tumor cell inoculation).
Mice inoculated with hepatocarcinomas for 6-8 days were sacrificed. The ascites was collected and the cell concentration adjusted to 5×10^7/ml with D-Hanks' solution. 0.2 ml of this was inoculated intraperitoneally to each BALB/c mouse except for the normal controls.
Administration of test substance was started on the next day after the tumor cell inoculation. The peptides and saline were applied daily and 5-FU once every two days for 60 continuous days or until the death of the mice.
The time of death was recorded and survival time prolongation calculated. Survival time prolongation was calculated as below: Survival prolongation (%)=(Average survival days of test group)−(Average survival days of saline control group)/(Average survival days of saline group)×100%.

[2] = system: Balb/c mice swimming time model; experiment: exhaustive swimming time of mice (Example 11); format: in vivo
Procedure: Balb/c male mice were randomized into groups of CMS-001.30 (20 μg/kg/day), CMS-001.31 (20 μg/kg/day), EPO (1000 u/kg/day, three times per week), and saline control. The test substance was dissolved in 0.5 ml saline and applied intraperitoneally once per day for 30 continuous days (EPO was replaced with saline if EPO was not applied). On the tenth day, the mice were trained to swim for 10 min at water temperature of 25±1° C. 30 min after the last test substance administration, the mice were placed to swim in the swimming tank (50 cm×50 cm×40 cm). The depth of water was 30 cm and water temperature 25±1° C. The limbs of the mice were kept moving in the whole process. The swimming (min) time of the mice until death was recorded. Exhaustive swimming time extension rate (ESTR) (%)=(Mean exhaustive swimming time of test group−Mean exhaustive swimming time of saline control)/(Mean exhaustive swimming time of saline control)×100%. 1.4 Statisitics

[3] = system: BALB/c mice; experiment: blood lactic acid level of mice after exercise; format: in vivo; settings: for Lactic acid elimination after rest: 20 min rest
Procedure: (§1) The mice were randomized into groups of CMS-001 (20 μg/kg/day, 5 μg/kg/day), CMS-008 (500 μg/kg/day, 125 μg/kg/day), and saline control. The test substance was administered by intraperitoneal injection once per day for 30 continuous days. A week after the start the of the test substance administration, the mice were trained to swim for 10 min, at water temperature of 25±1° C.
30 min after the last injection, 20 μl of blood was first collected from the orbital sinus. The mice were then weighed, and lead pieces corresponding to 4% of the body weight were wrapped to the tails of the mice at about 1 cm away from the body. The mice were placed to swim in the swimming tank for 10 min, at water depth of 30 cm and temperature of 30±1° C. The limbs of the mice were kept moving in the whole process. Immediately after the exercise and after resting for 20 min, 20 μl of blood was collected from the orbital sinus again. The blood was added into 40 μl hypotonic buffer and sonicated. Lactic acid level in the blood was determined by the lactic acid analyzer.
The amount of lactic acid increase after exercise is calculated based on the amount of lactic acid level immediately after exercise minus the lactic acid level before exercise.
The amount of lactic acid elimination after rest was calculated based on the amount of lactic acid level immediately after exercise minus the lactic acid level after rest.

[4] = system: BALB/c mice exhaustive swimming model; experiment: exhaustive swimming time of mice; format: in vivo; settings: 30 days
Procedure: as §1
30 min after the last injection, the mice were weighed, and lead pieces corresponding to 5% of the body weight were wrapped to the tails of the mice at about 1 cm away from the body. The mice were placed in the swimming tank, at water depth of 30 cm and temperature of 25±1° C. The limbs of the mice were kept moving in the whole process. The time of swimming until the death was recorded.

[5] = system: BALB/c mice; experiment: liver glycogen level of mice; format: in vivo
Procedure: The mice were randomized into groups of CMS-001 (20 μg/kg/day, 5 μg/kg/day), CMS-008 (500 μg/kg/day, 125 μg/kg/day), and saline control. The test substance was administered by intraperitoneal injection once per day for 30 continuous days. A week after the start the of the test substance administration, the mice were trained to swim for 10 min, at water temperature of 25±1° C. 30 min after the last injection, the mice were killed by cervical dislocation and the liver was dissected, washed with saline, and blotted dry with filter paper. About 100 mg liver was accurately weighed and the liver glycogen level was determined by the Anthracene Ketone reagent kit. Glycogen weight (mg) in every 100 g of liver=DU/DS×0.5×homogenization liquid vol./liver weight(g)×100×0.9.

[6] = system: BALB/c mice; experiment: serum urea nitrogen level after exercise; format: in vivo
Procedure: as §1, with “C. 30 min after the last injection, the mice were placed to swim in the swimming tank without addition of weight for 90 min, at water depth of 30 cm temperature of 30±1° C. The mice were then allowed to rest for 30 min, and blood was collected from the orbital sinus. The serum was isolated and the BUN was determined by a fully automated Biochemistry Analyser.” for “C.”

[7] = system: BALB/c mice; experiment: serum SOD, MDA, AST, ALT levels after exhaustive exercise; format: in vivo
Procedure: The mice were randomized into groups of CMS-001 (20 μg/kg/day, 5 μg/kg/day), CMS-008 (500 μg/kg/day, 125 μg/kg/day), and saline control. The test substance was administered by intraperitoneal injection once per day for 30 continuous days. A week after the start the of the test substance administration, the mice were trained to swim for 10 min, at water temperature of 25±1° C. 30 min after the last injection, the mice were placed to swim in the swimming tank without addition of weight at water depth of 30 cm and temperature of 25±1° C.^[4]. By the first time the mice sunk, the mice were rescued and blood was collected from the orbital sinus immediately. The serum was isolated and the MDA, SOD, AST, and ALT levels determined.

[8] = system: human gastric carcinoma BGC-823 xenograft; experiment: nude mice-transplanted human gastric carcinoma BGC-823 xenograft; format: in vivo, BALB/c (nu/nu) nude mice; settings: 30 days
Procedure: Hunan gastric carcinoma cell line BGC-823 at log phase were adjusted to the concentration of 2×10^7/ml and then inoculated subcutaneously to the back of nude mice (0.1 ml per mouse). The inoculated animals were randomized into groups of CMS024-16 (160 μg/kg/day, 320 μg/kg/day, and 640 μg/kg/day, all at 0.2 ml/day), positive control (5-Fu, 20 mg/kg/day at 0.2 ml/day), and negative control (normal saline, 0.2 ml/day). Administration of test substances by intraperitoneal injection was started on the next day after tumor implantation once per day for 30 continuous days. On the next day after the last injection, the tumor masses were collected and their weights determined Inhibition rate=(Mean weight of negative control−Mean weight of test group)/(Mean weight of negative control)×100%

[9] = system: skin allograft; experiment: survival of skin allograft in mice (CMS-014); format: in vivo, Balb/c mice (C57BL/6 donors)
Procedure: Half of the mice were male and half were female.
The test substances were dissolved in 0.5 ml saline and intraperitoneally injected for 5 days before the skin transplantation, followed by daily injection until the end point of rejection of the skin graft.
A patch of hair at the back of Balb/c mice was removed by 8% Na2S solution. On the next day, a wound bed of approximately 1 cm^2 was produced by removing the skin surgically, and then a piece of full-thickness tail skin of 1 cm^2 from sex-matched donor C57BL/6J mice was placed onto the wound bed. The surgical site was covered and protected with a layer of paraffin gauze, and a covering plaster was applied. The plaster was removed 6 days after transplantation^[1], and the recipient mice were monitored daily for the viability of the allograft. The end point of rejection was taken as only less than 10% of the allograft remained viable^[2].

[10] = Table 6.2 experiment, 80 μg/kg daily i.p.
[11] = 1000 u/kg/day, 3 times per week
[12] = Table 6.1 experiment, 80 μg/kg daily i.p.
[13] = Table 6.1 experiment, 20 mg/kg once every two days
[14] = Table 6.2 experiment, 20 mg/kg once every two days

## (3,5-dibromo-Tyr)-Ser-Leu ([Tyr(3,5-Br2)]-Ser-Leu) [CMS-024.14]
[1]
  survival of mice transplanted with H22 tumor cells: prolong the survival
[1]; [10]
  Survival Prolongation: 50.3%
  Survival time (first column): 16.0 ± 0.0 days
  Survival time (second column): 27.6 ± 8.5 days

## Erythropoietin [EPO, reference compound]
[2]; [11]
  ESTR (exhaustive swimming time extension rate): 31.3* %
  Swimming time: 126.1 ± 20.4 min

## Tyr-Ser-Nle (Tyr-Ser-[Nle]) [CMS-024.04, Nle = norleucine (2-aminohexanoic acid)]
[1]
  survival of mice transplanted with H22 tumor cells: prolong the survival
[1]; [12]
  Survival Prolongation: 15.8* %
  Survival time (first column): 19.0 ± 0.9 days
  Survival time (second column): 20.2 ± 4.4 days

## KAVGHLDDLPGAL [CMS-008]
[3]; 125 μg/kg/day
  Lactic acid increase after exercise: 2.70 ± 0.15 mmol/L
  Lactic acid elimination after rest: 3.62 ± 0.57 mmol/L
[3]; 500 μg/kg/day
  Lactic acid increase after exercise: 2.23 ± 0.30 mmol/L
  Lactic acid elimination after rest: 3.71 ± 0.22 mmol/L
[4]; 125 μg/kg/day i.p.
  Swimming time: 106.5 ± 19.4 min
  Swimming-time extension: 57.9* %
[4]; 500 μg/kg/day i.p.
  Swimming time: 116.5 ± 17.7 min
  Swimming-time extension: 72.7* %
[5]; 125 μg/kg/day
  liver glycogen: 1275 ± 726 mg/100 g liver tissue
[5]; 500 μg/kg/day
  liver glycogen: 1408 ± 457 mg/100 g liver tissue
[6]; 125 μg/kg/day
  Urea Nitrogen: 7.2 ± 2.3 mmol/L
[6]; 500 μg/kg/day
  Urea Nitrogen: 7.1 ± 2.0 mmol/L
[7]; 500 μg/kg/day
  ALT: 32.9 ± 5.2 U/L
  AST: 116.6 ± 18.8 U/L
  MDA: 4.1 ± 0.4 nmol/L
  SOD: 415.7 ± 31.5 U/ml

## Leu-Tyr-Ser (LYS; Synthetically prepared peptide sequence) [CMS-024.16]
[8]; 160 μg/Kg/day i.p.
  Inhibition rate: 54.0* %
  Tumor weight: 1.32 ± 0.68 g
[8]; 320 μg/Kg/day i.p.
  Inhibition rate: 44.7* %
  Tumor weight: 1.59 ± 1.017 g
[8]; 640 μg/Kg/day i.p.
  Inhibition rate: 54.4* %
  Tumor weight: 1.31 ± 0.77 g
[1]
  survival of mice transplanted with H22 tumor cells: prolong the survival
[1]; [10]
  Survival Prolongation: 57.8%
  Survival time (first column): 18.0 ± 1.0 days
  Survival time (second column): 29.0 ± 7.9 days

## PTTKTYFP [CMS-001.31]
[2]; 20 μg/kg/day i.p., 30 days
  ESTR (exhaustive swimming time extension rate): 76.0* %

## AAHHPDDFNPSV [CMS-014]
[9]; 125 μg/kg/day i.p.
  MST (mean survival time of skin allograft): 10.0 ± 0.5 days
[9]; 250 μg/kg/day i.p.
  MST (mean survival time of skin allograft): 9.8 ± 0.5 days
[9]; 500 μg/kg/day i.p.
  MST (mean survival time of skin allograft): 9.8 ± 0.4 days

## PTTKTY [CMS-001.30]
[2]; 20 μg/kg/day i.p., 30 days
  ESTR (exhaustive swimming time extension rate): 88.3* %

## PTTKTYFPHF [CMS-001]
[3]; 5 μg/kg/day
  Lactic acid increase after exercise: 2.60 ± 0.33 mmol/L
  Lactic acid elimination after rest: 2.96 ± 0.33 mmol/L
[3]; 20 μg/kg/day
  Lactic acid increase after exercise: 2.56 ± 0.41 mmol/L
  Lactic acid elimination after rest: 3.14 ± 0.64 mmol/L
[4]; 5 μg/kg/day i.p.
  Swimming time: 105.7 ± 19.8 min
  Swimming-time extension: 56.7* %
[4]; 20 μg/kg/day i.p.
  Swimming time: 99.8 ± 30.6 min
  Swimming-time extension: 48.0* %
[5]; 5 μg/kg/day
  liver glycogen: 439 ± 271 mg/100 g liver tissue
[5]; 20 μg/kg/day
  liver glycogen: 1567 ± 604 mg/100 g liver tissue
[6]; 5 μg/kg/day
  Urea Nitrogen: 6.9 ± 1.6 mmol/L
[6]; 20 μg/kg/day
  Urea Nitrogen: 7.3 ± 2.1 mmol/L
[7]; 20 μg/kg/day
  ALT: 32.7 ± 3.0 U/L
  AST: 117.0 ± 19.2 U/L
  MDA: 4.4 ± 0.2 nmol/L
  SOD: 400.6 ± 45.6 U/ml

## O=c1[nH]cc(F)c(=O)[nH]1 [5-Fu, 5-fluorouracil, reference compound]
[8]; 20 mg/Kg/day i.p.
  Inhibition rate: 40.8* %
  Tumor weight: 1.70 ± 0.70 g
[1]; [13]
  Survival Prolongation: 84.5* %
  Survival time (first column): 30.0 ± 2.0 days
  Survival time (second column): 32.5 ± 6.3 days
[1]; [14]
  Survival Prolongation: 33.3%
  Survival time (first column): 18.0 ± 0.4 days
  Survival time (second column): 24.5 ± 11.1 days

## Tyr-Thr-Val (YTV; Synthetically prepared peptide sequence) [CMS-024.05]
[1]
  survival of mice transplanted with H22 tumor cells: prolong the survival
[1]; [12]
  Survival Prolongation: 10.4* %
  Survival time (first column): 19.0 ± 1.0 days
  Survival time (second column): 19.3 ± 2.4 days

— patent publication US8658592B2, “Biologically active peptides and their new uses” (priority 2005, dated 2014)
